{"source": "patent US11850257B2", "about": "“Method for enhancing beta-adrenergic response” (Saganatura EHF., priority 2019, dated 2023)", "key": {"[1]": {"test_system": "β-adrenergic receptors in porcine detrusors", "assay": "Contraction of potassium-contracted pig detrusor muscle strips in organ baths, relaxation by adrenaline and desensitization", "excerpt": "Bladders were obtained from freshly slaughtered pigs and placed in cold Krebs solution (composition, mM: sodium chloride 119, potassium chloride 4.6, sodium bicarbonate 15, calcium chloride 1.5, magnesium chloride 1.2, sodium dihydrogen phosphate 1.2, glucose was 1.98 g/L) which had been gassed by 5% CO2 and put on ice. Subsequently four adjacent strips were cut from the detrusor (typically 2 mm wide and 20 mm long). In each case, four strips were cut, one of which served as a control. The tissues were mounted in a 100-mL organ bath containing sodium Krebs solution, which was maintained at 37° C. and continuously gassed with 95% O2 and 5% CO2. The strips were placed under a tension of ≈1 g and allowed to equilibrate for 60 minutes, during which the bath was changed three times. The muscle contraction was recorded by a transducer. The muscle strips were then contracted by addition of potassium up to 50 mM and allowed to equilibrate.\nAbout 40 minutes after addition of potassium, cnidimoside A was given to the organ baths. Cnidimoside A was isolated from Angelica archangelica leaf by boiling the dried leaf in water, extracting the water phase by ethyl acetate and subjecting the resulting organic phase to silica acid chromatography column. Cnidimoside A is eluted by 10% methanol in chloroform after washing the column with ethyl acetate and chloroform. The cnidimoside A rich fractions were recrystallized in methanol.\nThe muscle strip in the fourth organ bath (D in FIG. 1) received the same amount of DMSO but no cnidimoside A. About 20 and 30 minutes later (see FIG. 1, times 9 and 10) adrenaline was added to all organ baths, resulting in 0.4 (time 9) and 1.2 μM (time 10) final concentration, respectively.\nAbout 75 minutes after addition of potassium, cnidimoside A dissolved in DMSO was added to three organ baths (E-G, time-10 in FIG. 2), the fourth receiving the same amount of DMSO (bottom graph (H) in FIG. 2). Fifteen minutes after the addition of cnidimoside A, adrenaline was added to all baths, to a final concentration of 2 μM (time 11 in FIG. 2). In the absence of cnidimoside A the muscle strip relaxed for about 15 minutes, but then started contracting again, reaching the same level of contraction about 50 minutes after the addition of adrenaline."}, "[2]": {"test_system": "mice", "assay": "Mouse toxicity experiment, Angelica archangelica water-extract mixed in food for 6 months", "format": "in vivo", "conditions": "daily consumption of cnidimoside A 3.35 mg/kg (calculated from extract content 0.15%)", "procedure": "In a mouse experiment, we fed mice with about […] Angelica archangelica water-extract (mixed in food) daily for 6 months. Assuming the mice to be on average 23 g and cnidimoside A content in the extract to be 0.15%, this means that the daily consumption of cnidimoside A was 3.35 mg/kg."}, "[3]": {"assay": "Water solubility", "format": "physicochemical"}, "[4]": {"test_system": "mice", "conditions": "100 mg/kg daily, 30 days; cited from earlier work"}}}
{"smiles": "C/C(=C/Cc1c(O)cc2oc(C)cc(=O)c2c1O)CO[C@@H]1O[C@H](CO)[C@@H](O)[C@H](O)[C@H]1O", "note": "[cnidimoside A, 5,7-dihydroxy-2-methyl-6-[(Z)-3-methyl-4-[(2R,3R,4S,5S,6R)-3,4,5-trihydroxy-6-(hydroxymethyl)oxan-2-yl]oxybut-2-enyl]chromen-4-one]", "values": [{"measurement": "Desensitization of the relaxation response to adrenaline", "setting": "[1]; 13 μM cnidimoside A (bath C), adrenaline 0.4 and 1.2 μM, Experiment I", "result": "occurred slowly"}, {"measurement": "Desensitization of the relaxation response to adrenaline", "setting": "[1]; 38 μM cnidimoside A (bath B), adrenaline 0.4 and 1.2 μM, Experiment I", "result": "not observed at all"}, {"measurement": "Desensitization of the relaxation response to adrenaline", "setting": "[1]; 112 μM cnidimoside A (bath A), adrenaline 0.4 and 1.2 μM, Experiment I", "result": "not observed at all"}, {"measurement": "Desensitization of the relaxation response to adrenaline", "setting": "[1]; 200 μM cnidimoside A, adrenaline 2 μM, Experiment II", "result": "occurs much slower"}, {"measurement": "Repression of desensitization across doses", "setting": "[1]; 13, 38 and 112 μM cnidimoside A vs DMSO control, Experiment I", "result": "repressed dose-dependently"}, {"measurement": "Toxic effect", "setting": "[2]", "result": "No toxic effect"}, {"measurement": "Water solubility", "setting": "[3]", "result": "highly water soluble"}, {"measurement": "Effect on the weight of body, liver, spleen or thymus", "setting": "[4]", "result": "without affecting"}]}
